No end group written: not given here.
Columns and labels:
[1] = test system: peripheral blood mononuclear cells; assay: IFN-γ ELISPOT, human T cell stimulation; type: cell-based; conditions: Micro-DCM patients compared to healthy controls
Protocol: IFN-γ ELISPOT was performed as described by Lv et. al. with minor modifications (7), Briefly, PBMCs from patients and healthy volunteers were isolated on density gradients. PBMCs were adjusted to 2×10^6 cells/ml in 0.5 ml of complete IVS medium supplemented with 8% of human serum. Cells were stimulated for 48 h with 0.25 μg/ml of the indicated peptide or left untreated as medium control. After incubation, cells were washed and re-suspended in 0.3 ml of RPMI/10% FOS and approximately 5×10^5 cells/0.1 ml were dispensed in duplicates into previously coated and blocked ELISPOT plates (IFN-γ base kit, MABTECH). After 24 h of incubation at 37° C. the ELISPOT plates were washed and developed as indicated by the manufacturer. Plates were counted using an ELISPOT reader and analyzed with the software ELISPOT 3.1SR (AID). Number of specific IFN-γ positive cells was calculated as the mean of the duplicates minus the mean of the medium control.

[2] = test system: CD4^+ T cells from TCRM mice; assay: Ex vivo proliferation assay (CFSE dilution) after peptide re-stimulation; type: cell-based, mouse; conditions: 3 days
Protocol: Spleen cells were labelled with 10 μl of 5 mM carboxyfluorescein succinimidyl ester (CSFE, dissolved in DMSO) (Molecular Probes) in 10 ml of PBS for 10 min at 37° C. The staining reaction was stopped with 1 mL FCS (Lonza), followed by washing with PBS. A total of 2×10^5 splenocytes/well were seeded in 96-well round-bottom plate and MYH6614-629 (RSLKLMATLFSTYASADR, SEQ ID NO: 10) or Bacteroides β-galactosidase11-25 (TFLILMAALTATFASAQK, SEQ ID NO: 11), Enterobacter cysteine hydrolase10-27 (LLIGMMSTFSTYASAQET, SEQ ID NO: 12) or OVA323-339 (ISQAVHAAHAEINEAGR, SEQ ID NO: 13) peptide was added at the indicated concentrations. CSFE dilution was assessed by flow cytometry after 3 days of incubation at 37° C. All peptides were synthetized by Genscript with >80% of purity.

TCRM T cells = assay: Proliferation of transferred TCRM CD4^+ T cells after injection of peptide loaded dendritic cells; type: in vivo, mouse; conditions: TCRM CD4^+ T cells transferred into BALB/c mice
Description: FIGS. 7A-I. Specificity and immune interaction of Bacteroides mimic peptide-specific CD4^+ T cells. (FIG. 7A) In vitro proliferation of CD4^+ T cells from TCRM mice or DO11.10 mice measured by CFSE dilution after re-stimulation with MYH6 or Bacteroides β-galactosidase peptide or ovalbumin peptide at indicated concentration (representative histograms from 1 out of 2 experiments) (FIG. 7B) Dendritic cells loaded with MYH6 or β-gal peptide from Bacteroides at the indicated concentration were co-cultured in vitro with CD4^+ T cells from TCRM mice. Maximum proliferation of CD4^+ T cells was analyzed by flow cytometry and effective concentration 50 (EC50) for each peptide was determined. (FIG. 7C) CD4^+ T cells from TCRM mice were adoptively transferred into BALB/c mice. Proliferation of CD4^+ T cells from TCRM mice was determined ex vivo by CFSE dilution after injection of peptide loaded dendritic cells (n=3). (FIG. 7D-FIG. 7E) Colonization of GF TCRM mice with SPF microbiota or B. thetaiotaomicron or E. coli. […] Fold increase values were calculated using the cytokine production in GF mice as baseline (mean±SEM). […] (FIG. 7H) experimental dosing, (FIG. 7I) representative dot plots left and quantification right of IgA bound bacteria; background was set using samples from Rag^−/− mice (mean±SEM). […]

[3] = test system: CD4^+ T cells from heart and colon of TCRM mice; assay: Ex vivo restimulation and cytokine production of murine T cells; type: cell-based, mouse
Protocol: For assessment of ex vivo production of IFN-γ and IL-17, 10^6 lymphocytes were incubated for 3.5 h at 37° C. in 96-well round-bottom plates in 200 μL of RPMI per 5% FCS supplemented with 10 μg/mL brefeldin A (Sigma). Cells were stimulated with 0.25 μg of the different peptides (see below), or phorbol myristate acetate (50 ng/ml; Sigma)/ionomycin (500 ng/ml; Sigma) (PMA/l) as positive control, or were left untreated. After surface molecule labelling, cells were stained with the fixable viability dye Zombie Aqua (Biolegend). Cells were fixed with cytofix-cytoperm (BD Biosciences) for 20 min. Fixed cells were incubated at 4° C. for 40 min with permeabilization buffer (2% FCS, 0.5% saponin in PBS) containing antibodies to CD3, CD4, IFN-γ and IL-17A. Samples were measured using a BD LSR Fortessa (BD Biosciences). Data were analyzed using FlowJo software (Tree Star, Inc.).

Rag1^−/− mice = assay: Adoptive transfer myocarditis model with antibiotics treatment; type: in vivo, mouse; conditions: for accumulation of TCR-transgenic CD4^+ T cells in hearts / cardiac inflammation by flow cytometry (heart-infiltrating CD45^+ cells): day 28
Protocol: For the generation of single-cell suspensions, spleens and lymph nodes were collected in BSS and were mechanically disrupted on a metallic grid. To confirm the presence of heart-infiltrating cells, mice received 2 μg of anti-CD45.2 BV510 or anti-Thy 1.1 PE i.v. 5 min before being euthanized in the indicated experiments. Euthanized animals were perfused with 20 ml PBS and small heart tissue pieces were placed into a 6-well dish filled with RPMI 1640 medium containing 2% FCS, 20 mM HEPES (Lonza), 1 mg/ml collagenase 0 (Sigma) and 25 μg/ml DNasel (Applichem) and incubated at 37° C. under continuous stirring. The remaining tissue pieces were mechanically disrupted and mononuclear cells were purified by centrifugation (25 min at 800×g, 4° C.) on a 30-70% Percoll gradient (GE Healthcare). For isolation of colonic lamina propria cells, colons were flushed and tissue was harvested and incubated three times for 15 min at room temperature under constant agitation with BSS containing 5% FCS (Lonza), 5 mM EDTA (Sigma), 10 mM HEPES (Sigma) and 1 mM OTT in order to dissociate the epithelial layer. The tissue was subsequently washed with SS containing 10 mM HEPES and digested three times for 20 min at 37° C. with 120 μg/ml collagenase P (Roche), 25 μg/ml DNAse I (Applichem) and 5 μg/ml Dispase I (Roche) in RPMI-1640; after obtaining a single cell suspension, cells were purified by a 30-70% Percoll gradient. Single-cell suspensions were first stained with the fixable viability dye Zombie Aqua (Biolegend) and incubated for 30 min on ice; after washing, cells were incubated for 20 min at 4° C. in PBS containing 2% FCS and 10 mM EDTA with fluorochrome-labeled antibodies (Table 5). Cells were acquired with a BD LSRFortessa (BD Biosciences) and analyzed using FlowJo software (Treestar Inc) following stablished guidelines (32). […] Cells were stimulated with 0.25 μg of the different peptides (see below), or phorbol myristate acetate (50 ng/ml; Sigma)/ionomycin (500 ng/ml; Sigma) (PMA/l) as positive control, or were left untreated. After surface molecule labelling, cells were stained with the fixable viability dye Zombie Aqua (Biolegend). Cells were fixed with cytofix-cytoperm (BD Biosciences) for 20 min. […] Samples were measured using a BD LSR Fortessa (BD Biosciences). Data were analyzed using FlowJo software (Tree Star, Inc.). […] Red blood cells were lysed by osmotic shock and 10^6 splenocytes were injected intravenously in 4 wk mice in the lateral tail vein of Rag1^−/− mice. Seven days after adoptive transfer, mice were bled to confirm CD4^+ T cell expansion. Disease activity scores and analysis of T cell activation in the heart and colonic lamina propria were performed at day 28 post adoptive transfer.

B. thetaiotaomicron = assay: Quantitative B. thetaiotaomicron PCR in feces; type: in vivo, Bacteroides thetaiotaomicron; conditions: Rag1^−/− recipients, qPCR
Protocol: Bacterial genomic DNA was extracted using a commercial kit (QIAamp DNA Stool Mini Kit) with minor modifications. Glass beads (Sigma, G4649-10G) were used for an optimal disruption of fecal content and an additional extraction step was introduced after incubation of bacteria with a lysis buffer (20 mg/ml lysozyme—Sigma 62970-5G-F, 2 mM EDTA, 1.2% Triton, 20 mM Tris-HCl). Extracted genomic DNA was used as a template for B. thetaiotaomicron PCR amplification and quantification using a real-time PCR machine (Quant Studio 5) and SYBR Green PCR technology (Applied Biosystems, Thermo Fisher Scientific). B. thetaiotaomicron was quantified using species specific primers that have been established and validated before (39) ([…] and […]) with a cycling protocol of denaturation at 95° C. (2 min), 40 cycles of 95° C. (20 sec), 58° C. (20 sec) and 72° C. (30 sec). Each 17 μl qPCR mixture consisted of 8.5 μl of 2×SYBR Green MasterMix (Applied Biosystems, Thermo Fisher Scientific), 1.7 μl of BSA (100 μg/ml), 0.6 μl of each primer (10 μM), 3.60 μl PCR-grade water and 2 μl of extracted genomic DNA. DNA extracted from B. theta ATCC29148 was used to construct a standard curve with 10-fold dilutions of DNA templates of known concentrations. Concentrations of DNA used in the standard curves ranged from 33.75 ng/μl equivalent to 10^7 bacteria to 0.035 pg/μl equivalent to 10^1 bacteria. […]

Row | Molecule | IFN-γ reactivity of PBMC [1] | in vitro proliferation of CD4^+ T cells from TCRM mice [2] | accumulation of TCR-transgenic CD4^+ T cells in hearts (Rag1^−/− mice) | cardiac inflammation by flow cytometry (heart-infiltrating CD45^+ cells) (Rag1^−/− mice) | also measured
1 | SLKLMATLFSSYATAD (listed as Homo sapiens) [SEQ ID NO: 17, human myosin heavy chain 6 peptide] | significantly higher IFN-γ reactivity |  |  |  | 
2 | LLIGMMSTFSTYASAQET (Enterobacter cysteine hydrolase 10-27) [Enterobacter cloacae peptide, Enterobacter cysteine hydrolase10-27 peptide synthetized by Genscript] |  | not |  |  | 
3 | TFLILMAALTATFASAQK [B. theta β-gal peptide, TFLILMAALTATFASAQK] | significantly higher IFN-γ reactivity | induced in vitro proliferation |  |  | activation of TCRM T cells in vivo by peptide-pulsed dendritic cells (TCRM T cells): efficient activation of TCRM T cells in vivo; ex vivo re-stimulation of transgenic CD4^+ T cells (cytokine production) ([3]; heart and colon of 12 week old TCRM mice): ex vivo re-stimulation of transgenic CD4^+ T cells from heart and colon
4 | CN[C@H](CC(C)C)C(=O)N[C@H]1C(=O)N[C@@H](CC(N)=O)C(=O)N[C@H]2C(=O)N[C@H]3C(=O)N[C@H](C(=O)N[C@H](C(=O)O)c4cc(O)cc(O)c4-c4cc3ccc4O)[C@H](O)c3ccc(c(Cl)c3)Oc3cc2cc(c3O[C@@H]2O[C@H](CO)[C@@H](O)[C@H](O)[C@H]2O[C@H]2C[C@](C)(N)[C@H](O)[C@H](C)O2)Oc2ccc(cc2Cl)[C@H]1O [Vancomycin] |  |  | significantly reduced accumulation | profound reduction | activity of Th1 cells (Rag1^−/− mice; IFN-γ production): reduced to a lesser extent; activation of heart-infiltrating and colonic Th17 cells (Rag1^−/− mice; IL-17 production): pronounced impact; cardiac disease (histopathology) (Rag1^−/− mice; day 28 post adoptive transfer): significantly ameliorated; B. theta levels in fecal samples (B. thetaiotaomicron): reduced
5 | [H]/N=C(/N)N[C@H]1[C@H](O)[C@@H](O)[C@H](O[C@@H]2O[C@@H](C)[C@](O)(C=O)[C@H]2O[C@@H]2O[C@@H](CO)[C@H](O)[C@@H](O)[C@@H]2NC)[C@@H](N/C(N)=N\[H])[C@@H]1O [Streptomycin] |  |  | significantly reduced accumulation | profound reduction | 
6 | RSLKLMATLFSTYASADR (MYH6 614-629) [MYH6 peptide, MYH6614-629 peptide synthetized by Genscript] |  |  |  |  | IFN-γ or IL-17 secretion upon ex-vivo re-stimulation ([3]; CD4^+ T cells from colonic lamina propria, TCRM vs DO11.10): only MYH6-specific CD4^+ T cells, but not ovalbumin-specific CD4^+ T cells from the colonic lamina propria were able to secrete IFN-γ or IL-17

— US11617773B2, “Elimination of colonic bacterial driving lethal inflammatory cardiomyopathy” (Eligo Bioscience, priority 2020, dated 2023)
